The text below walks through data of US7371853.

Each structure is given as a SMILES string. Like-named read-outs stand apart in the source and are kept apart here.

The conditions of the series: amide bond, BOP, DCM, 25.0 °C.

The compound `COC(=O)C1Cc2cccc(c2)OC[C@H](c2ccccc2)NC(=O)c2cc(cc(N(C)S(C)(=O)=O)c2)C(=O)N1` (some centres unmarked) gave a ring closure, yield of all isomers (from COC(=O)C(N)Cc1cccc(OC[C@@H](NC(=O)c2cc(C(=O)O)cc(N(C)S(C)(=O)=O)c2)c2ccccc2)c1, 1.76 mM, 72.0 h) of 62%.
With `COC(=O)[C@@H]1Cc2cccc(c2)OCCNC(=O)c2cc(cc(N(C)S(C)(=O)=O)c2)C(=O)N1`, the ring closure, yield of all isomers (from COC(=O)[C@H](Cc1cccc(OCCN)c1)NC(=O)c1cc(C(=O)O)cc(N(C)S(C)(=O)=O)c1, 2.0 h, 2 steps) was 30%.
